The test system of one data set is CREBH mRNA. Kind of data set: CREBH mRNA induction in H2.35 cells (Northern blot, quantitative real-time RT-PCR). The settings on record: murine H2.35 hepatoma cells; IL6 40 ng/ml, TNFα 20 ng/ml, IL1β 40 ng/ml, DTT 5 mM, Tg 0.5 μM, Tm 5 μg/ml, BFA 0.5 μg/ml; 4, 8, 12 hours. In kind it is cell-based. How it is done:
FIG. 1 depicts the induction of expression of CREBH during fetal liver development and by proinflammatory cytokines. (A) Structural comparison of CREBH and ATF6. The domains are indicated by residue numbers of amino acids. (B) Northern blot analysis of CREBH mRNA levels in various tissues from mice. Tissue samples were collected from 3-month-old wild-type C57BL/6J mice. Levels of β-actin mRNA were determined for control of sample loading. (C) Expression profile of CREBH mRNA in fetal livers during embryogenesis. (D) Induction of CREBH mRNA in murine hepatoma cell line H2.35 under IL6 (40 ng/ml) stimulation for various time points. For panels A-D, experiments were performed at least 3 times and representative data are shown.
FIG. 2 depicts the analysis of gene expression in H2.35 cells. H2.35 cells were treated with 20 ng/ml TNFα, 40 ng/ml IL1β, 20 μg.ml LPS, 5 mM DTT, 0.5 μM Tg, 5 μg/ml Tm or 0.5 μg/ml BFA for 4, 8 and 12 hours, respectively. Levels of CREBH mRNA (A) and spliced XBP1 mRNA (B) in H2.35 were determined by quantitative real-time RT-PCR. Fold changes of mRNA induction were determined after normalization of the mRNA levels to internal control 18S ribosomal RNA levels. […] However, expression from the SAP or CRP promoter-reporter plasmids is sufficiently measurable in H2.35 cells so that it is possible to investigate transcriptional activation effects of CREBH on the CRP and SAP promoters by reporter assays in H2.35 cells. These reporter experiments are not possible in non-hepatocyte cell lines. However, for non-hepatocyte cell lines, such as wild-type and mutant CHO cells, CREBH cleavage and activation could be measured using the UPRE reporter assay. (C) Summary of stimuli that induce CREBH mRNA, NF-κB activation and the UPR in H2.35 and HepG2 cells. (D) Expression of BiP and GRP94 in H2.35 cells over-expressing CREBH or ATF6. H2.35 cells in a 35 mm collagen-coated plate were transfected with 1.5 μg empty DNA vector, vector expressing the nuclear form of CREBH (CREBH-N) or vector expressing nuclear form of ATF6 (ATF6 p50), respectively. Expression levels of BiP and GRP 94 were determined by Western blot analysis by using a murine and —BiP monoclonal antibody and a murine anti-GRP94 monoclonal antibody, respectively. The membranes were re-blotted with an anti-α-actin antibody for control of sample loading.
Northern blot analysis was performed according to standard procedures (Sambrook et al., 1989). ^32P-labeled probes were prepared using a random prime labeling system (Amersham Pharmacia, Piscataway, N.J., USA). A 210 bp mouse CREBH cDNA fragment, a 250 bp mouse CRP cDNA fragment and a 260 bp mouse SAP cDNA fragment were amplified from murine total RNA by reverse transcription-PCR system (Roche Applied Science), respectively, and were used as probes for Northern blot analyses. Total RNA (15 μg) per sample purified from cultured cells or murine tissues was used for Northern blot analysis. Quantitative real-time RT-PCR was performed as previously described (Back et al., 2005). Briefly, total cellular RNA prepared was reverse-transcribed to cDNA using a random primer (Applied Biosystems). The reaction mixture, containing SYBR Green PCR Master Mix (Applied Biosystems), was run in a 7900HT Fast Real-Time PCR System (Applied Biosystems). Real-time PCR primer sequences for quantification of murine XBP1 mRNA splicing are: the forward primer 5′-[…]-3′, and the reverse primer 5′-[…]-3′. Other primer sequences were designed by Primer Express (Applied Biosystems).
(Real-time PCR tracks product formation cycle by cycle.)

In the next data set the test system is human CREBH. The experiment in a line: Cleavage of flag-tagged human CREBH stably expressed in H2.35 cells (Western blot, cell fractionation). The format is cell-based. The settings on record: H2.35 cells stably expressing flag-tagged human CREBH; 8 hours; BFA 0.5 μg/ml, TNFα 20 ng/ml, IL6 40 ng/ml, DTT 5 mM, Tg 0.5 μM, Tm 5 μg/ml. The method, then: FIG. 3 depicts the effects of ER stress on CREBH: proteolytic cleavage of CREBH to release its N-terminal fragment that translocates into the nucleus. (A) Illustration of transmembrane domains and lumenal domains of SREBP, ATF6, Luman and CREBH in human (hs), mouse (mm). The conserved residues for S1P and S2P recognition are highlighted. (B) Cleavage of CREBH in H2.35 cells under different stimuli. H2.35 cells stably expressing flag-tagged human CREBH were treated with 0.5 μg/ml BFA, 20 ng/ml TNFα, 40 ng/ml IL6, 5 mM DTT, 0.5 μM Tg or 5 μg/ml Tm for 8 hours. Untransfected H2.35 cells (lane 1) and the H2.35 cells that stably express human CREBH (lane 2) were cultured under normal conditions as control. Total cell lysates were collected for Western blot analysis by using an anti-flag monoclonal antibody (upper panel). Levels of α-actin were determined for control of protein loading (lower panel). (C) Cleavage of CREBH in H2.35 cells under Tm treatment for various time periods. The H2.35 cells stably expressing flag-tagged CREBH were cultured in the absence or presence of Tm (5 μg/ml) for 4, 8 or 12 hours. Membrane fractions were isolated from the total cell lysates, and were subjected to Western blot analysis of CREBH and calnexin, respectively. Nuclear fractions were isolated from the same total cell lysates and subjected to Western blot analysis of CREBH and PARP, respectively. (D) Translocation of CREBH in COS7 cells. COS7 cells were co-transfected with a construct expressing flag-tagged full-length CREBH (CREBH-F) or CREBH-ΔC and a construct expressing KDEL-RFP, and were then cultured in the absence or presence of Tm (5 μg/ml) for 4 hours. Cells were then stained with FITC-conjugated anti-flag antibody and subjected to Zeiss Confocal Microscope analysis. Magnification: 40×10.
For analysis of expression and cleavage of CREBH protein, total cell lysates were prepared from H2.35 cells or COS7 cells using Nonidet P-40 lysis buffer (1% NP-40, 50 mM Tris-HCl at pH 7.5, 150 mM NaCl, 0.05% SDS) supplemented with protease inhibitors (Complete Mini from Roche Applied Science), 0.1 mM sodium vanadate, and 1 mM sodium fluoride. Membrane and nuclear fractions of cell lysates were isolated as previously described (Dignam et al., 1983). The total cell lysate, membrane and nuclear fractions were subjected to SDS-PAGE and then analyzed by Western blot using anti-flag monoclonal antibody or other antibodies. Immunoprecipitation and Western blot analyses of ATF6 and CREBH interaction in 293T cells expressing flag-tagged CREBH protein were performed by using anti-human ATF6 and anti-flag antibodies. Total cell lysates from 293T cells transfected with control vector or pFlag-CREBH-ΔC were immunoprecipitated with anti-human ATF6 polyclonal antibody and anti-flag antibody, respectively. The immunoprecipitated cell lysates were then subjected to Western blotting by using anti-flag antibody to detect CREBH protein and using anti-human ATF6 antibody to detect ATF6 protein, respectively. The same total cell lysates were subjected to Western blotting by using anti-flag antibody to detect expression of CREBH protein in the transfected cells. For detecting endogenous CREBH protein in the liver extracts, an anti-mouse CREBH polyclonal antibody was raised in rabbits against a purified mouse CREBH peptide composed of amino acids 92-109 [[…]]. The rabbit anti-human ATF6 polyclonal antibody was generated in the inventor's laboratory. The anti-mouse calnexin monoclonal antibody and the anti-mouse monoclonal PRAP antibody were purchased from Stressgen Biotechnologies (Victoria, BC, Canada) and BD Bioscience (Mountain View, Calif., USA), respectively.
(In general: Immunoblotting shows a protein as a band on a membrane.)

Data set [1] concerns BiP, CHOP, EDEM, spliced XBP1, SAP and CRP mRNAs. Kind of data set: UPR and APR mRNA induction in mouse liver after injection (quantitative real-time RT-PCR). In kind it is in vivo. The settings on record: 24 hours after injection; for fold increases in UPR mRNA levels relative to those observed after injection of Tm: liver; for levels of spliced XBP1 mRNA and mRNA encoding EDEM in the liver: wild-type mice.
Experimental: Levels of spliced XBP1 mRNA were determined by quantitative real-time RT-PCR (lower panel). […] (B) Induction of CRP, SAP, BiP and spliced XBP1 mRNAs in mice injected with Tm. C57BU6J mice at 3-months of age were injected intraperitoneally with Tm (2 mg/kg body weight) in 150 mM dextrose solution. Mice were injected with the same volume of dextrose solution as a control. Liver tissues were collected from mice at 24 hours after injection for RNA isolation. (C-E) Induction of the BiP, CHOP, EDEM, spliced XBP1, SAP and CRP mRNAs in mice challenged with IL6, IL1β, LPS or Tm. Wild-type C57B1/6J mice at 3-months of age were intraperitoneally injected with recombinant murine IL6 (25 ng/gram body weight), recombinant murine IL1β (25 ng/gram body weight), LPS (3 μg/gram body weight) or Tm (2 μg/gram body weight). Mice were injected with the same volume of NaCL (for panels C and D) or dextrose (for panels E) solution as controls. At 24 hours after injection, liver samples were collected for isolating total RNA. Quantitative real-time RT-PCR was used to determine the mRNA levels. Fold changes of mRNA induction were determined after normalization of the mRNA levels to internal control 18S ribosomal RNA levels. Each bar denotes the mean±S.D., n=5 mice per injection.
Quantitative real-time RT-PCR was performed as previously described (Back et al., 2005). Briefly, total cellular RNA prepared was reverse-transcribed to cDNA using a random primer (Applied Biosystems). The reaction mixture, containing SYBR Green PCR Master Mix (Applied Biosystems), was run in a 7900HT Fast Real-Time PCR System (Applied Biosystems). Real-time PCR primer sequences for quantification of murine XBP1 mRNA splicing are: the forward primer 5′-[sequence]-3′, and the reverse primer 5′-[sequence]-3′. Other primer sequences were designed by Primer Express (Applied Biosystems).

Consider `O[C@H](CS)[C@H](O)CS` (racemic) [DTT, dithiothreitol], for which, in the data set on CREBH mRNA, the “induction of CREBH mRNA” value is “significantly induced”. Further, the “cleavage of CREBH to release a 50 kD N-terminal fragment” value (from here on “cleavage of CREBH”) in the data set on human CREBH was “significantly induced cleavage of CREBH”.
Regarding `C[C@H]1CCC/C=C/[C@@H]2C[C@H](O)C[C@H]2[C@H](O)/C=C/C(=O)O1` [BFA, Brefeldin A], in the data set on CREBH mRNA, the “induction of CREBH mRNA” value is listed as “significantly induced”. The “cleavage of CREBH” value in the data set with human CREBH was “induced cleavage of CREBH”.
For `C/C=C(/C)C(=O)O[C@H]1C(C)=C2[C@H]([C@@H]1OC(=O)CCCCCCC)[C@@](C)(OC(C)=O)C[C@H](OC(=O)CCC)[C@@]1(O)[C@H]2OC(=O)[C@@]1(C)O` [Tg, thapsigargin], in the data set with CREBH mRNA, the “induction of CREBH mRNA” value is given as “significantly induced”. Besides, the “cleavage of CREBH” value with human CREBH is “significantly induced cleavage of CREBH”.
As for tumor necrosis factor α [TNFα], the “induction of CREBH mRNA” value in the data set on CREBH mRNA is “induced in a time-dependent manner”. Moreover, in the data set with human CREBH, the “cleavage of CREBH” value is on record as “neither of them significantly induced CREBH cleavage”.

B1: interleukin-6 (protein, UniProt P08505 25-211, looked up)
Interleukin-6: FPTSQVRRGDFTEDTTPNRPVYTTSQVGGLITHVLWEIVEMRKELCNGNSDCMNNDDALAENNLKLPEIQRNDGCYQTGYNQEICLLKISSGLLEYHSYLEYMKNNLKDNKKDKARVLQRDTETLIHIFNQEVKDLHKIVLPTPISNALLTDKLESQKEWLRTKTIQFILKSLEEFLKVTLRSTRQT
notes: pro-inflammatory cytokine; recombinant murine IL6 in vivo
Take B1: in data set [1], the “fold increases in UPR mRNA levels relative to those observed after injection of Tm” value was “approximately 50 % of those observed after injection of Tm”; the “levels of spliced XBP1 mRNA and mRNA encoding EDEM in the liver” value is recorded as “also increased”. In the data set with CREBH mRNA, the “induction of CREBH mRNA” value is given as “induced in a time-dependent manner”. In the data set with human CREBH, the “cleavage of CREBH” value is “neither of them significantly induced CREBH cleavage”.

B2: IL1β: pro-inflammatory cytokine; recombinant murine IL1β in vivo (protein, UniProt P10749 118-269, looked up)
Interleukin-1 beta: VPIRQLHYRLRDEQQKSLVLSDPYELKALHLNGQNINQQVIFSMSFVQGEPSNDKIPVALGLKGKNLYLSCVMKDGTPTLQLESVDPKQYPKKKMEKRFVFNKIEVKSKVEFESAEFPNWYISTSQAEHKPVFLGNNSGQDIIDFTMESVSS
As to B2, in data set [1], the “fold increases in UPR mRNA levels relative to those observed after injection of Tm” value was “approximately 50 % of those observed after injection of Tm”; the “levels of spliced XBP1 mRNA and mRNA encoding EDEM in the liver” value was “also increased”. In the data set with CREBH mRNA, the “induction of CREBH mRNA” value is listed as “induced in a time-dependent manner”.
